From patent publication US12378219B2, “Crystalline forms of a MAGL inhibitor” (H. LUNDBECK A/S, priority 2022, dated 2025)

Legend:
[1] = Dynamic vapor sorption (DVS); type: physicochemical; settings: up to 90% RH
Method: Example 6: Procedures Used for Dynamic Vapor Sorption (DVS) Measurements
DVS was measured using SMS DVS advantage 01 changing the relative humidity from 0% RH to 95% RH in steps of 10% RH (5% between 90 and 95% RH). 2 cycles were performed using 1-10 mg, starting at 30% RH.

[2] = Relative thermodynamic stability of crystalline forms (DSC, XRPD after heating, slurry); type: physicochemical; settings: form 1 converts to form 3 on heating to 150° C. and upon slurry
Method: In a vial Compound (I) form 1 (500 mg) were slurried in a 1:1 mixture of MeCN/water at room temperature for 24 hours. A small sample of wet precipitate was analyzed by XRPD showing the diffractogram of FIG. 3.
DSC was measured using a TA-Instruments Discovery-DSC calibrated at 5°/min to give the melting point as onset value. About 2 mg of sample is heated 5°/min under nitrogen flow in a closed pan with a pinhole in the lid.
Thus, Compound (I) Form 3 was formed upon heating of Compound (I) Form 1.

[3] = target: T1, MAGL (Homo sapiens, UniProt Q99685); test: In vitro competitive activity-based protein profiling (ABPP) in PC3 human cell membrane proteomes; type: biochemical; settings: 30 min preincubation at 37° C., read-out: MAGL % inh. 1 μM (human PC3)
T1 construct: measuring fluorescent intensity of gel bands corresponding to MAGL; endogenous in cells; host or cells: PC3 human cells (membrane proteome)
T1 sequence (Q99685 1-303): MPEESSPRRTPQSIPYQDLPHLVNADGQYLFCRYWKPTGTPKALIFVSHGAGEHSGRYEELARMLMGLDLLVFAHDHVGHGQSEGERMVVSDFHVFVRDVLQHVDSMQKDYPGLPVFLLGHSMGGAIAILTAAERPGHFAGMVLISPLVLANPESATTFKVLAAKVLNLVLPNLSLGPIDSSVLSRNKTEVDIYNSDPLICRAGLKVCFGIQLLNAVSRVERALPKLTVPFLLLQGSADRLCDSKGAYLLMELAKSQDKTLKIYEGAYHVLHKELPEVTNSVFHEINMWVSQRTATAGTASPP
Method: In Vitro Competitive Activity-Based Protein Profiling
PC3 human cell membrane proteomes (50 μL, 2.0 mg/mL total protein concentration) were preincubated with varying concentrations of Compound (I) at 37° C. After 30 min, the ABPP probe JW912-Bodipy (1.0 μL, 50 μM in DMSO) was added and the mixture was incubated for 30 min at room temperature. Reactions were quenched with SDS loading buffer (15 μL—4×) and run on SDS-PAGE. Following gel imaging, serine hydrolase activity was determined by measuring fluorescent intensity of gel bands corresponding to MAGL using ImageJ 1.43u software. Intensities were converted to percent enzyme activity by normalizing to DMSO controls. IC50 values were determined by fitting percent enzyme activities to a non-linear regression, 4-parameter, sigmoidal dose response function in Prism GraphPad.

[4] = target: T2, MAGL (Mus musculus, UniProt O35678); test: In vivo MAGL inhibition, brain proteomes after oral gavage; settings: 5 mg/kg oral gavage; C57Bl/6J; brain proteomes 4 h after administration
T2 construct: brain proteomes were prepared and analyzed according to previously established methods; from tissue; host or cells: brain of wild-type C57Bl/6J animals
T2 sequence (O35678 1-303): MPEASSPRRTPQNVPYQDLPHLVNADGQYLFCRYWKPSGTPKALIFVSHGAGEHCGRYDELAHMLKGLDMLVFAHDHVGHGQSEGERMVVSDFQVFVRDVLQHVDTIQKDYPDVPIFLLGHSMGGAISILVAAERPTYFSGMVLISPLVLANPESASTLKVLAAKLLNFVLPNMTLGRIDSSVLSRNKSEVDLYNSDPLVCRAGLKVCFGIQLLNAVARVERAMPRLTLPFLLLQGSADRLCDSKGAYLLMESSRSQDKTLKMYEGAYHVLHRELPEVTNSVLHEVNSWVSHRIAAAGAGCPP
Method: Compound (I) were administered to wild-type C57Bl/6J by oral gavage in a vehicle of polyethylene glycol. Each animal was sacrificed 4 h following administration and brain proteomes were prepared and analyzed according to previously established methods (See Niphakis, M. J., et al. (2011) ACS Chem. Neurosci. and Long, J. Z., et al. Nat. Chem. Biol. 5:37-44).

## O=C(Nc1cccnn1)[C@H]1CC12CCN(C(=O)OC(C(F)(F)F)C(F)(F)F)CC2 [Compound (I) form 1, 1,1,1,3,3,3-Hexafluoropropan-2-yl (S)-1-(pyridazin-3-ylcarbamoyl)-6-azaspiro[2.5]octane-6-carboxylate form 1]
[1]
  water uptake (DVS): 1.4 wt %

## O=C(Nc1cccnn1)[C@H]1CC12CCN(C(=O)OC(C(F)(F)F)C(F)(F)F)CC2 [Compound (I) form 3, 1,1,1,3,3,3-Hexafluoropropan-2-yl (S)-1-(pyridazin-3-ylcarbamoyl)-6-azaspiro[2.5]octane-6-carboxylate form 3]
[2]
  thermodynamic stability relative to the other crystalline form: thermodynamically more stable than Compound (I) Form 1
[1]
  water uptake (DVS): around 0.1 wt %

## O=C(Nc1cccnn1)[C@H]1CC12CCN(C(=O)OC(C(F)(F)F)C(F)(F)F)CC2 [Compound (I), 1,1,1,3,3,3-Hexafluoropropan-2-yl (S)-1-(pyridazin-3-ylcarbamoyl)-6-azaspiro[2.5]octane-6-carboxylate]
[3]
  inhibition at 1 µM: 100%
[4]
  MAGL % inh. 5 mg/kg (mouse): 100%
